Measurements: ChEMBL document CHEMBL4811238, “Identification of N-phenyl-2-(phenylsulfonyl)acetamides/propanamides as new SLC-0111 analogues: Synthesis and evaluation of the carbonic anhydrase inhibitory activities” (Eur J Med Chem, 2021)
The source made the active and inactive calls. The rule behind the calls is not given here.

How the values were obtained:
Carbonic anhydrase 1 = Carbonic anhydrase 1 (Homo sapiens, UniProt P00915); assay: Inhibition of recombinant human CA1 pre-incubated for 15 mins measured by phenol red dye based stopped flow CO2 hydration assay
Carbonic anhydrase 1, sequence (P00915 whole entry): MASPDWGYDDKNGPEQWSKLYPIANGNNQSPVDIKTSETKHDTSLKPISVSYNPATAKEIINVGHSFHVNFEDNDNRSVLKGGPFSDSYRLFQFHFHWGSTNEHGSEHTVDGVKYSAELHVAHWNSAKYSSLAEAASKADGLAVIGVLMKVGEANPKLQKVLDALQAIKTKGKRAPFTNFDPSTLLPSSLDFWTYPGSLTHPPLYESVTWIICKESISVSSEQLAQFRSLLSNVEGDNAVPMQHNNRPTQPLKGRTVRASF

Carbonic anhydrase 9 = Carbonic anhydrase 9 (Homo sapiens, UniProt Q16790)
Description: Inhibition of recombinant human CA9 pre-incubated for 15 mins measured by phenol red dye based stopped flow CO2 hydration assay

Carbonic anhydrase 12 = Carbonic anhydrase 12 (Homo sapiens, UniProt O43570); assay: Inhibition of recombinant human CA12 pre-incubated for 15 mins measured by phenol red dye based stopped flow CO2 hydration assay
Carbonic anhydrase 12, sequence (O43570 whole entry): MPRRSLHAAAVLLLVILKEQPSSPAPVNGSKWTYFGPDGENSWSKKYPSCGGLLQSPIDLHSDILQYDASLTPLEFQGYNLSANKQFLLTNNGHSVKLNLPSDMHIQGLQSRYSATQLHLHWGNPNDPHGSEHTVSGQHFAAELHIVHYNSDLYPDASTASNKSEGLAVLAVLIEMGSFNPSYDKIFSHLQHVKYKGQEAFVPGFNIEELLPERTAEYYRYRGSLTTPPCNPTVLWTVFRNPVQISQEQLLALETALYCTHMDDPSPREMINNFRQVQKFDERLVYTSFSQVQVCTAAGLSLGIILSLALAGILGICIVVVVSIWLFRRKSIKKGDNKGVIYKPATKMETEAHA

Carbonic anhydrase 2 = Carbonic anhydrase 2 (Homo sapiens, UniProt P00918)
Description: Inhibition of recombinant human CA2 pre-incubated for 15 mins measured by phenol red dye based stopped flow CO2 hydration assay

HCT-116 [1] = assay: Antiproliferative activity against human HCT-116 cells after 48 hrs under hypoxic condition by MTT assay; format: functional, cell-based; conditions: HCT-116, 48 h
HCT-116 [2] = assay: Induction of cell cycle arrest in human HCT116 cells assessed as cell accumulation at S phase at IC50 concentration after 24 hrs by propidium iodide staining based flow cytometry analysis; format: functional
HCT-116 [3] = assay: Induction of apoptosis in human HCT116 cells assessed as late apoptotic cells after 24 hrs by Annexin-V-FITC/PI-staining based flow cytometry (reference value: 0.22%); format: functional
MCF7 = assay: Antiproliferative activity against human MCF7 cells after 48 hrs under hypoxic condition by MTT assay; format: functional, cell-based; conditions: MCF7, 48 h
HCT-116 [4] = assay: Induction of cell cycle arrest in human HCT116 cells assessed as cell accumulation at sub-G1 phase at IC50 concentration after 24 hrs by propidium iodide staining based flow cytometry analysis; format: functional
HCT-116 [5] = assay: Induction of apoptosis in human HCT116 cells assessed as early apoptotic cells after 24 hrs by Annexin-V-FITC/PI-staining based flow cytometry (reference value: 0.59%); format: functional
HCT-116 [6] = assay: Induction of apoptosis in human HCT116 cells assessed as necrotic cells after 24 hrs by Annexin-V-FITC/PI-staining based flow cytometry (reference value: 1.01%); format: functional

Ki (Carbonic anhydrase 1) [µM] | Ki (Carbonic anhydrase 9) [µM] | SMILES | also measured
> 100 | > 100 | CC(=O)c1ccc(NC(=O)CS(=O)(=O)c2ccc(C)cc2)cc1 | Ki (Carbonic anhydrase 12): > 100 µM; Ki (Carbonic anhydrase 2): > 100 µM
– | 0.0043 | Cc1ccc(S(=O)(=O)CCC(=O)Nc2ccc(S(N)(=O)=O)cc2)cc1 | IC50 (HCT-116 [1]): 0.57 µM; Activity (HCT-116 [2]): Active; Activity (HCT-116 [3]): 21.45%; IC50 (MCF7): 0.67 µM; Activity (HCT-116 [4]): Active; Activity (HCT-116 [5]): 0.91%; Activity (HCT-116 [6]): 9.63%
– | 0.0159 | Cc1ccc(S(=O)(=O)CC(=O)Nc2ccc(S(N)(=O)=O)cc2)cc1 | –
– | 0.0065 | CC(C(=O)Nc1ccc(S(N)(=O)=O)cc1)S(=O)(=O)c1ccccc1 (centres undefined) | –
– | 0.0461 | NS(=O)(=O)c1ccc(NC(=O)CCS(=O)(=O)c2ccccc2)cc1 | –
– | 0.0298 | Cc1ccc(S(=O)(=O)C(C)C(=O)Nc2ccc(S(N)(=O)=O)cc2)cc1 (centres undefined) | –
– | 0.72 | Cc1ccc(S(=O)(=O)CC(=O)Nc2ccc(C(=O)O)cc2)cc1 | IC50 (HCT-116 [1]): 2.23 µM; IC50 (MCF7): 3.41 µM
> 100 | 29.5 | CCOC(=O)c1ccc(NC(=O)CS(=O)(=O)c2ccc(C)cc2)cc1 | Ki (Carbonic anhydrase 12): > 100 µM
> 100 | 0.93 | O=C(CS(=O)(=O)c1ccccc1)Nc1ccc(C(=O)O)cc1 | IC50 (HCT-116 [1]): 11.6 µM; IC50 (MCF7): 5.29 µM
> 100 | > 100 | Cc1ccc(S(=O)(=O)CC(=O)Nc2ccc([N+](=O)[O-])cc2)cc1 | Ki (Carbonic anhydrase 12): > 100 µM; Ki (Carbonic anhydrase 2): > 100 µM
– | 0.0227 | NS(=O)(=O)c1ccc(NC(=O)CS(=O)(=O)c2ccccc2)cc1 | –
> 100 | 17.2 | CCOC(=O)c1ccc(NC(=O)CS(=O)(=O)c2ccccc2)cc1 | Ki (Carbonic anhydrase 2): > 100 µM
